Consider eleven molecules from ChEMBL document CHEMBL1201862, “PubChem BioAssay data set” (2004).

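Grown in 96-well plates, cells were treated for 48 hours with each compound at five concentrations. Insufficient inhibition: endpoint recorded as highest concentration tested. Abbreviation: GI50, concentration required for 50% inhibition of growth.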 Activity calls are given as the source filed them. Cut-off read from the data, not from the text of the source: active = GI50 up to about 1.1 µM and inactive = higher. Bounds are passed on as bounds.

Test systems include SK-MEL-28; UACC-257; T47D; MOLT-4; A549; CCRF-CEM; SNB-19; UO-31; U-251; NCI-H226; HOP-92; OVCAR-5; COLO 205; TK-10; IGROV-1; OVCAR-4; A498; MDA-MB-231; OVCAR-3; SF-539.
Assay in all cases: growth of human tumour cells (NCI), 48 h

As for `CNC(=O)Nn1c(SC)nc2ccccc21`, the GI50 with SK-MEL-28, in the test on UACC-257, in the test with T47D, in the test on MOLT-4, with A549 and in the test with CCRF-CEM was > 100 µM (inactive) each time. Further, the GI50 in the test on SNB-19, in the test with UO-31, with U-251, in the test with NCI-H226, in the test with HOP-92 and in the test on OVCAR-5 was > 100 µM (inactive) each time. Further, the GI50 with COLO 205, in the test with TK-10, with IGROV-1, with OVCAR-4, with A498 and in the test with MDA-MB-231 was > 100 µM (inactive) in each case.
As for `O=C1C(c2c(O)[nH]c3ccccc23)=Nc2ccc(Br)cc21`, the GI50 was > 100 µM (inactive) with SK-MEL-28; 58.6 µM (inactive) with UACC-257; 21.8 µM (inactive) with T47D; 18.9 µM (inactive) in the test on MOLT-4; 27.2 µM (inactive) in the test on A549; 21.2 µM (inactive) in the test with CCRF-CEM. Besides, the GI50 is 22 µM (inactive) in the test with SNB-19; 24.6 µM (inactive) in the test with UO-31; 19.5 µM (inactive) with U-251; 18.5 µM (inactive) in the test on NCI-H226; 17.6 µM (inactive) in the test on HOP-92; 49.3 µM (inactive) in the test on OVCAR-5. Moreover, the GI50 in the test with COLO 205 was > 100 µM (inactive); in the test on TK-10, 23 µM (inactive); in the test on OVCAR-3, 99.5 µM (inactive); in the test with IGROV-1, 3.37 µM (inactive); in the test on OVCAR-4 it was 14.9 µM (inactive); with A498 it was 4.39 µM (inactive). In the test with MDA-MB-231, the GI50 was 23.3 µM (inactive).
Turning to `O=C(O)CCSC1=NCCN1`, the GI50 is > 100 µM (inactive) with SK-MEL-28; 64 µM (inactive) in the test on UACC-257; > 100 µM (inactive) in the test with T47D; > 100 µM (inactive) in the test on A549; 98.6 µM (inactive) in the test with CCRF-CEM; > 100 µM (inactive) with SNB-19. For the same molecule, the GI50 in the test with UO-31, in the test on U-251, in the test on NCI-H226, with HOP-92, with OVCAR-5 and in the test on COLO 205 was > 100 µM (inactive) each time. The GI50 in the test with TK-10, in the test on OVCAR-3, in the test on IGROV-1, with OVCAR-4, in the test with A498 and with MDA-MB-231 was > 100 µM (inactive) throughout.
In the case of `O=C1OC2(c3ccccc31)c1cc(I)c(O)c(I)c1Oc1c2cc(I)c(O)c1I` [ERYTHROSINE], the GI50 in the test on SK-MEL-28, with UACC-257, with T47D, in the test on MOLT-4, in the test on A549 and in the test on CCRF-CEM was > 100 µM (inactive) in each case. The GI50 in the test with SNB-19 was > 100 µM (inactive); with UO-31, > 100 µM (inactive); in the test with U-251, 92.3 µM (inactive); with NCI-H226, 37.4 µM (inactive); in the test with HOP-92, > 100 µM (inactive); in the test on OVCAR-5 it was > 100 µM (inactive). Besides, the GI50 in the test on COLO 205 was > 100 µM (inactive); with TK-10 it was > 100 µM (inactive); in the test with OVCAR-3, 5.46 µM (inactive); in the test on IGROV-1 it was > 100 µM (inactive); with OVCAR-4, > 100 µM (inactive); in the test with SF-539 it was > 100 µM (inactive). For the same molecule, the GI50 with MDA-MB-231 was > 100 µM (inactive).
For `O=C1Nc2ccc(S(=O)(=O)NCCO)cc2/C1=C1/Nc2ccccc2C1=O`, the GI50 was > 100 µM (inactive) in the test with SK-MEL-28; > 100 µM (inactive) in the test with UACC-257; 4.56 µM (inactive) in the test with T47D; 7.06 µM (inactive) with MOLT-4; > 100 µM (inactive) in the test with A549; 3.23 µM (inactive) in the test on CCRF-CEM. Also, the GI50 with SNB-19 is 8.81 µM (inactive); in the test on UO-31, 52.5 µM (inactive); with U-251, 3.16 µM (inactive); in the test with NCI-H226 it was > 100 µM (inactive); with HOP-92 it was 13.8 µM (inactive); in the test on OVCAR-5 it was 46.5 µM (inactive). In addition, the GI50 in the test with COLO 205 is 2.82 µM (inactive); in the test on TK-10 it was 18 µM (inactive); in the test on OVCAR-3, 4.06 µM (inactive); with IGROV-1, 1.04 µM (active); in the test on OVCAR-4 it was 3.06 µM (inactive); in the test on A498, 2.53 µM (inactive). Further, in the test with MDA-MB-231, the GI50 is 12 µM (inactive).
Take `Cc1c(-c2ccccc2)[nH]c2ccc(Cl)cc2c1=O`: the GI50 with SK-MEL-28 is 40.6 µM (inactive); with UACC-257 it was 27.8 µM (inactive); in the test on T47D it was 19.4 µM (inactive); in the test with MOLT-4, 22 µM (inactive); in the test with A549 it was 0.0232 µM (active); in the test on CCRF-CEM it was 55.8 µM (inactive). Also, the GI50 is > 100 µM (inactive) in the test with SNB-19; 0.252 µM (active) in the test on UO-31; 22.9 µM (inactive) with U-251; 30.4 µM (inactive) in the test on NCI-H226; 20.4 µM (inactive) in the test on HOP-92; 61.9 µM (inactive) in the test on OVCAR-5. The GI50 in the test with COLO 205 was 70.6 µM (inactive); in the test with TK-10, 36.6 µM (inactive); with OVCAR-3, 17.1 µM (inactive); in the test on IGROV-1, 33.9 µM (inactive); in the test on OVCAR-4 it was 21.8 µM (inactive); in the test on SF-539, 22.2 µM (inactive). The GI50 with MDA-MB-231 is 19 µM (inactive).
For `Cc1ccc(N2C(=O)C(=O)N(/N=C3\C(=O)Nc4ccccc43)C2=S)cc1`, the GI50 in the test with SK-MEL-28 was > 100 µM (inactive); in the test on UACC-257 it was > 100 µM (inactive); with T47D it was 38.2 µM (inactive); with MOLT-4, 28.8 µM (inactive); with A549, > 100 µM (inactive); with CCRF-CEM, 7.96 µM (inactive). Besides, the GI50 with SNB-19 is > 100 µM (inactive); with UO-31, > 100 µM (inactive); in the test with U-251, 26.3 µM (inactive); with HOP-92, > 100 µM (inactive); in the test on OVCAR-5, > 100 µM (inactive); in the test with COLO 205, 42 µM (inactive). Further, the GI50 with TK-10 was > 100 µM (inactive); in the test on OVCAR-3, 64.4 µM (inactive); with IGROV-1, 95.5 µM (inactive); in the test with SF-539, > 100 µM (inactive); with A498 it was > 100 µM (inactive); in the test with MDA-MB-231, > 100 µM (inactive).
Regarding `O=C1NC(N2CCOCC2)=N/C1=C\c1ccccc1`, the GI50 with SK-MEL-28, in the test with UACC-257, in the test on T47D, in the test with MOLT-4, in the test on A549 and in the test with CCRF-CEM was > 100 µM (inactive) each time. Moreover, the GI50 in the test on SNB-19, in the test with UO-31, in the test on U-251, with NCI-H226, in the test with HOP-92 and in the test with OVCAR-5 was > 100 µM (inactive) each time. The GI50 in the test with COLO 205, with TK-10, in the test with OVCAR-3, in the test on IGROV-1, with OVCAR-4 and in the test with SF-539 was > 100 µM (inactive) in each case. For the same molecule, in the test with MDA-MB-231, the GI50 is > 100 µM (inactive).
Consider `CCOC(=O)c1cc(C2CCN(Cc3ccccc3)C2=O)c(C(=O)/C=C(/C)N)[nH]1` (configuration not stated), for which the GI50 is > 100 µM (inactive) with SK-MEL-28; > 100 µM (inactive) in the test on UACC-257; > 100 µM (inactive) in the test with T47D; > 100 µM (inactive) in the test with MOLT-4; 73.6 µM (inactive) in the test on A549; > 100 µM (inactive) in the test with SNB-19. For the same molecule, the GI50 in the test with UO-31 is 91.2 µM (inactive); in the test with U-251, > 100 µM (inactive); with HOP-92, 25.8 µM (inactive); in the test with OVCAR-5, > 100 µM (inactive); in the test on COLO 205, > 100 µM (inactive); in the test with TK-10 it was > 100 µM (inactive). Further, the GI50 in the test on OVCAR-3 is 81.3 µM (inactive); with IGROV-1 it was 67.5 µM (inactive); in the test on OVCAR-4 it was 72.9 µM (inactive); in the test on A498 it was > 100 µM (inactive); in the test with MDA-MB-231 it was > 100 µM (inactive).
Take `CCCCC(=C=C(C)CO)C1CCCN1C(=O)OC(C)(C)C` (configuration not stated): the GI50 in the test with SK-MEL-28 was 18.4 µM (inactive); in the test with UACC-257, 16 µM (inactive); in the test with T47D it was 22.5 µM (inactive); in the test with MOLT-4, 12.3 µM (inactive); in the test on A549, 19 µM (inactive); with CCRF-CEM, 14.3 µM (inactive). The GI50 was 23.3 µM (inactive) in the test on SNB-19; 22.9 µM (inactive) in the test on UO-31; 17.1 µM (inactive) in the test on U-251; 16 µM (inactive) with NCI-H226; 12.7 µM (inactive) in the test on HOP-92; 21 µM (inactive) in the test on OVCAR-5. Further, the GI50 in the test on COLO 205 is 15.4 µM (inactive); with TK-10 it was 19.4 µM (inactive); with OVCAR-3, 17.5 µM (inactive); in the test on IGROV-1 it was 17.9 µM (inactive); in the test on OVCAR-4 it was 17.3 µM (inactive); in the test with SF-539, 16.9 µM (inactive). In addition, in the test on MDA-MB-231, the GI50 is 17 µM (inactive).
Turning to `C/C(=N\NC(=O)c1ccccc1O)c1cccc(/C(C)=N/NC(=O)c2ccccc2O)n1`, the GI50 was 4.24 µM (inactive) in the test on T47D; 0.955 µM (active) in the test with MOLT-4; 9.23 µM (inactive) in the test with A549; 10.9 µM (inactive) with HOP-92; 18.6 µM (inactive) in the test on TK-10; 37.8 µM (inactive) in the test on A498. Also, the GI50 in the test on MDA-MB-231 is 19.4 µM (inactive).
